Laboratory results published in patent publication US20260258050A1, “IMMUNOMODULATOR” (HITGEN INC., priority 2023, published 2026).

Biological target: T1, Human IL-17A (Homo sapiens, UniProt Q16552)
T1 sequence (Q16552 20-155 limits assumed): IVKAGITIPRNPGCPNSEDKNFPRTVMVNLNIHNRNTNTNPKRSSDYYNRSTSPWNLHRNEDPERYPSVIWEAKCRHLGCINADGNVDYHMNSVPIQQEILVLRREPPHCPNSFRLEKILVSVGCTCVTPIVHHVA
Assay: IL-17A enzyme-linked immunosorbent assay (competitive ELISA, IL-17A/IL-17Ra receptor-ligand binding)
Parameters: purchased Sino Biological Inc. 12047-H07B
Conditions: human IL-17A coated plate, human IL-17Ra, read-out: IC50, inhibitory activity of compounds on human IL-17A
Summary of the method: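 Competitive ELISA with plates coated with human IL-17A at 0.2 μg/ml, blocked with 5% skim milk. Compound pre-incubated with IL-17A 10 min at 25 °C, then 16 nM IL-17Ra stock added for 30 min. Bound receptor detected by anti-Fc HRP/TMB, A450. IC50 from variable-slope fit of blank-corrected residual activity.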

Structure (SMILES) | IC50
Cc1[nH]nc2c1-c1cnc(NC(=O)[C@@H](NC(=O)c3ccnn3C(C)C)C(C3CC3)C3CC3)cc1CN(CC(C)(F)F)CC2 [compound 199] | ≤ 50 nM
CCCn1nccc1C(=O)N[C@H](C(=O)Nc1cc2c(cc1F)-c1c(n[nH]c1C)CCOC2)C(C1CC1)C1CC1 [compound 62] | ≤ 50 nM
Cc1[nH]nc2c1-c1cc(F)c(NC(=O)[C@@H](NC(=O)c3ccnn3C(C)C3CC3)C(C3CC3)C3CC3)cc1COCC2 (single isomer, unassigned) [compound 41a] | ≤ 50 nM
Cc1[nH]nc2c1-c1ccc(NC(=O)[C@@H](NC(=O)c3ccnn3C(C)C)C(C3CC3)C3CC3)cc1CN(C)C(=O)C2 [compound 22] | ≤ 50 nM
Cc1[nH]nc2c1-c1cc(F)c(NC(=O)[C@@H](NC(=O)c3ccnn3CCCF)C(C3CC3)C3CC3)cc1CN(C1CC1)CC2 [compound 218] | ≤ 50 nM
Cc1[nH]nc2c1-c1cc(F)c(NC(=O)[C@@H](NC(=O)c3ccnn3C(C)C)C(C3CC3)C3CC3)cc1CN(C(C)C(F)(F)F)C(=O)C2 (single isomer, unassigned) [compound 186a] | ≤ 50 nM
COCCCn1nccc1C(=O)N[C@H](C(=O)Nc1cc2c(cc1F)-c1c(n[nH]c1C)CCOC2)C(C1CC1)C1CC1 [compound 58] | ≤ 50 nM
[2H]C([2H])([2H])C([2H])(n1nccc1C(=O)N[C@H](C(=O)Nc1cc2c(cc1F)-c1c(n[nH]c1C)CCOC2)C(C1CC1)C1CC1)C([2H])([2H])[2H] [compound 89] | ≤ 50 nM
Cc1[nH]nc2c1-c1cnc(NC(=O)[C@@H](NC(=O)c3ccnn3C(C)C)C(C3CC3)C3CC3)cc1CN(CC(F)F)C(=O)C2 [compound 192] | ≤ 50 nM
Cc1[nH]nc2c1-c1cc(F)c(NC(=O)[C@@H](NC(=O)c3ccnn3C(C)C)C(C3CC3)C3CC3)cc1CN(C1CCC1)C(=O)C2 [compound 170] | ≤ 50 nM
Cc1[nH]nc2c1-c1cnc(NC(=O)[C@@H](NC(=O)c3conc3C3CC3)C(C3CC3)C3CC3)cc1COCC2 [compound 241] | ≤ 50 nM
CCn1nccc1C(=O)N[C@H](C(=O)Nc1ccc2c(c1)CN(C)C(=O)Cc1n[nH]c(C)c1-2)C(C1CC1)C1CC1 [compound 23] | ≤ 50 nM
Cc1[nH]nc2c1-c1cc(F)c(NC(=O)[C@@H](NC(=O)c3ccnn3CCOC3CC3)C(C3CC3)C3CC3)cc1COCC2 [compound 102] | ≤ 50 nM
Cc1[nH]nc2c1-c1cc(F)c(NC(=O)[C@@H](NC(=O)c3ccnn3CCOCC(F)(F)F)C(C3CC3)C3CC3)cc1COCC2 [compound 104] | ≤ 50 nM
Cc1[nH]nc2c1-c1cc(F)c(NC(=O)[C@@H](NC(=O)c3ccnn3CCC(O)C(F)(F)F)C(C3CC3)C3CC3)cc1COCC2 (stereo partly shown) [compound 81] | ≤ 50 nM
Cc1[nH]nc2c1-c1cc(F)c(NC(=O)[C@@H](NC(=O)c3ccnn3C(C)CF)C(C3CC3)C3CC3)cc1COCC2 (single isomer, unassigned) [compound 42b] | ≤ 50 nM
Cc1[nH]nc2c1-c1cc(F)c(NC(=O)[C@@H](NC(=O)c3ccnn3C(C)C3CC3)C(C3CC3)C3CC3)cc1COCC2 (single isomer, unassigned) [compound 41b] | ≤ 50 nM
Cc1[nH]nc2c1-c1cc(F)c(NC(=O)[C@@H](NC(=O)c3ccnn3CCC(F)(F)F)C(C3CC3)C3CC3)cc1COCC2 [compound 88] | 50 to 150 nM
Cc1[nH]nc2c1-c1cnc(NC(=O)[C@@H](NC(=O)c3ccnn3C(C)CF)C(C3CC3)C3CC3)cc1COCC2 (single isomer, unassigned) [compound 189b] | ≤ 50 nM
Cc1[nH]nc2c1-c1cc(F)c(NC(=O)[C@@H](NC(=O)c3ccnn3CCC(F)F)C(C3CC3)C3CC3)cc1COCC2 [compound 65] | ≤ 50 nM
Cc1[nH]nc2c1-c1cc(F)c(NC(=O)[C@@H](NC(=O)c3ccnn3C(C)C)C3CCCCC3)cc1COCC2 [compound 48] | ≤ 50 nM
Cc1[nH]nc2c1-c1cc(F)c(NC(=O)[C@@H](NC(=O)c3ccnn3C(C)C)C(C3CC3)C3CC3)cc1CN(C1CCOCC1)C(=O)C2 [compound 167] | ≤ 50 nM
Cc1[nH]nc2c1-c1cnc(NC(=O)[C@@H](NC(=O)c3ccnn3C(C)C3CC3)C(C3CC3)C3CC3)cc1COCC2 (single isomer, unassigned) [compound 188b] | ≤ 50 nM
CCn1nccc1C(=O)N[C@H](C(=O)Nc1cc2c(cc1F)-c1c(n[nH]c1C)CCOC2)[C@H]1CC[C@H](C)CC1 [compound 46] | ≤ 50 nM
Cc1[nH]nc2c1-c1cnc(NC(=O)[C@@H](NC(=O)c3ccnn3C(C)CF)C(C3CC3)C3CC3)cc1COCC2 (single isomer, unassigned) [compound 189a] | ≤ 50 nM
Cc1[nH]nc2c1-c1cc(F)c(NC(=O)[C@@H](NC(=O)c3ccnn3CCCC(F)(F)F)C(C3CC3)C3CC3)cc1COCC2 [compound 84] | ≤ 50 nM
Cc1[nH]nc2c1-c1cnc(NC(=O)[C@@H](NC(=O)c3ccnn3C(C)C)C(C3CC3)C3CC3)cc1CN(C1CC(F)(F)C1)C(=O)C2 [compound 194] | ≤ 50 nM
Cc1[nH]nc2c1-c1cnc(NC(=O)[C@@H](NC(=O)c3ccnn3C(C)C)C(C3CC3)C3CC3)cc1CN(C(C)C)C(=O)C2 [compound 195] | ≤ 50 nM

Structure (SMILES) | IC50
Cc1[nH]nc2c1-c1ccc(NC(=O)[C@@H](NC(=O)c3ccnn3C)C(C3CC3)C3CC3)cc1COCC2 [compound 2] | ≤ 50 nM
Cc1[nH]nc2c1-c1cnc(NC(=O)[C@@H](NC(=O)c3conc3C3CC3)C(C3CC3)C3CC3)cc1CN(C1CC1)CC2 [compound 215] | ≤ 50 nM
Cc1[nH]nc2c1-c1cnc(NC(=O)[C@@H](NC(=O)c3ccnn3C(C)C)C(C3CC3)C3CC3)cc1CN(C1CC1)CC2 [compound 198] | ≤ 50 nM
CCc1nocc1C(=O)N[C@H](C(=O)Nc1cc2c(cn1)-c1c(n[nH]c1C)CCN(C1CC1)C2)C(C1CC1)C1CC1 [compound 216] | ≤ 50 nM
Cc1[nH]nc2c1-c1cc(F)c(NC(=O)[C@@H](NC(=O)/C(F)=C\C(C)C)C(C3CC3)C3CC3)cc1COCC2 [compound 229] | ≤ 50 nM
Cc1[nH]nc2c1-c1cc(F)c(NC(=O)[C@@H](NC(=O)c3ccnn3CC3CC3)C(C3CC3)C3CC3)cc1COCC2 [compound 59] | ≤ 50 nM
CCOCCn1nccc1C(=O)N[C@H](C(=O)Nc1cc2c(cc1F)-c1c(n[nH]c1C)CCOC2)C(C1CC1)C1CC1 [compound 100] | ≤ 50 nM
Cc1[nH]nc2c1-c1cc(F)c(NC(=O)[C@@H](NC(=O)c3ccnn3CC(C)(F)F)C(C3CC3)C3CC3)cc1COCC2 [compound 87] | ≤ 50 nM
CC(=O)N1CCc2n[nH]c(C)c2-c2cnc(NC(=O)[C@@H](NC(=O)c3ccnn3C(C)C)C(C3CC3)C3CC3)cc2C1 [compound 196] | ≤ 50 nM
Cc1[nH]nc2c1-c1cnc(NC(=O)[C@@H](NC(=O)c3ccnn3C(C)C)C(C3CC3)C3CC3)cc1CN(Cc1ccccc1)C(=O)C2 [compound 182] | ≤ 50 nM
Cc1[nH]nc2c1-c1cc(F)c(NC(=O)[C@@H](NC(=O)c3ccnn3C(C)CF)C(C3CC3)C3CC3)cc1COCC2 (single isomer, unassigned) [compound 42a] | ≤ 50 nM
Cc1[nH]nc2c1-c1cc(F)c(NC(=O)[C@@H](NC(=O)c3ccnn3C(C)C)C(C3CC3)C3CC3)cc1CN(C1CC(F)(F)C1)C(=O)C2 [compound 169] | ≤ 50 nM
Cc1[nH]nc2c1-c1ccc(NC(=O)[C@@H](NC(=O)c3ccnn3C(C)C)C(C3CC3)C3CC3)cc1CNC(=O)C2 [compound 27] | ≤ 50 nM
Cc1[nH]nc2c1-c1cnc(NC(=O)[C@@H](NC(=O)c3conc3C(C)C)C(C3CC3)C3CC3)cc1CN(C1CC1)CC2 [compound 214] | ≤ 50 nM
[2H]C([2H])([2H])C([2H])(n1nccc1C(=O)N[C@H](C(=O)Nc1ccc2c(c1)COCCc1n[nH]c(C)c1-2)C(C1CC1)C1CC1)C([2H])([2H])[2H] [compound 52] | ≤ 50 nM
Cc1[nH]nc2c1-c1cnc(NC(=O)[C@@H](NC(=O)c3ccnn3C(C)C)C(C3CC3)C3CC3)cc1CN(C(C)C)CC2 [compound 200] | ≤ 50 nM
Cc1[nH]nc2c1-c1cnc(NC(=O)[C@@H](NC(=O)c3ccnn3C(C)C)C(C3CC3)C3CC3)cc1CN(CC(F)F)CC2 [compound 202] | ≤ 50 nM
Cc1[nH]nc2c1-c1cnc(NC(=O)[C@@H](NC(=O)c3ccnn3C(C)C)C(C3CC3)C3CC3)cc1CN(CC(C)(F)F)C(=O)C2 [compound 193] | ≤ 50 nM
Cc1[nH]nc2c1-c1cc(F)c(NC(=O)[C@@H](NC(=O)c3ccnn3CC3(C#N)CC3)C(C3CC3)C3CC3)cc1COCC2 [compound 114] | ≤ 50 nM
Cc1[nH]nc2c1-c1cc(F)c(NC(=O)[C@@H](NC(=O)c3ccnn3CCOC(C)(C)C)C(C3CC3)C3CC3)cc1COCC2 [compound 113] | ≤ 50 nM
Cc1[nH]nc2c1-c1cnc(NC(=O)[C@@H](NC(=O)c3ccnn3C(C)C)C(C3CC3)C3CC3)cc1CN(C1CCC1)CC2 [compound 201] | ≤ 50 nM
CCn1nccc1C(=O)N[C@H](C(=O)Nc1cc2c(cn1)-c1c(n[nH]c1C)CCN(C1CC1)C2)C(C1CC1)C1CC1 [compound 217] | ≤ 50 nM
CCc1nocc1C(=O)N[C@H](C(=O)Nc1cc2c(cn1)-c1c(n[nH]c1C)CCOC2)C(C1CC1)C1CC1 [compound 240] | ≤ 50 nM
Cc1[nH]nc2c1-c1cnc(NC(=O)[C@@H](NC(=O)c3conc3C(C)C)C(C3CC3)C3CC3)cc1COCC2 [compound 234] | ≤ 50 nM
Cc1[nH]nc2c1-c1cnc(NC(=O)[C@@H](NC(=O)c3ccnn3C(C)C3CC3)C(C3CC3)C3CC3)cc1COCC2 (single isomer, unassigned) [compound 188a] | ≤ 50 nM
Cc1[nH]nc2c1-c1cc(F)c(NC(=O)[C@@H](NC(=O)c3ccnn3C(C)C)C(C3CC3)C3CC3)cc1CN(C(C)C(F)(F)F)C(=O)C2 (mixture of isomers) [compound 173] | ≤ 50 nM
Cc1[nH]nc2c1-c1cnc(NC(=O)[C@@H](NC(=O)/C(F)=C\C(C)C)C(C3CC3)C3CC3)cc1COCC2 [compound 238] | ≤ 50 nM
